Earlier results, collected in patent US5661161A, “Inhibitors of farnesyl-protein transferase” (Merck & Co., Inc., priority 1995, dated 1997).

Tested on: farnesyl-protein transferase
Settings: literature; via inhibition of HMG-CoA reductase

SMILES | Indirect inhibition of farnesyl-protein transferase in vivo
CC[C@H](C)C(=O)O[C@H]1CCC=C2C=C[C@H](C)[C@H](CC[C@@H]3C[C@@H](O)CC(=O)O3)[C@H]21 [compactin] | Indirect inhibition
CC[C@H](C)C(=O)O[C@H]1C[C@@H](C)C=C2C=C[C@H](C)[C@H](CC[C@@H]3C[C@@H](O)CC(=O)O3)[C@H]21 [lovastatin] | Indirect inhibition
